From US9597407B2, “Targeted antimicrobial moieties” (C3 Jian, Inc., priority 2009, dated 2017)
Entries after “also recorded” stand apart in the source; their conditions may differ.

Key:
bacteria = assay: Binding of targeting peptides to microorganisms (Table 3); details: preferably 1x PBS; for Target(s) (microorganisms bound by the targeting peptide) / Target(s) (microorganism bound by the targeting peptide): peptide binding in aqueous buffers that varied depending on peptide solubility; for Target(s): microorganism the targeting peptide binds, binding in aqueous buffers that varied with peptide solubility
microorganisms [1] = assay: Peptide activities: binding, antimicrobial, growth or phenotype altering (Table 8)
Excerpt: In certain embodiments, peptides described herein can have multiple activities. Thus for example, a peptide can have both binding/targeting activity and antimicrobial activity. Such peptides can be used, e.g., in a chimeric construct, for any or all of these properties. Thus, for example, a peptide designated “B” in Table 8 can be used as a targeting peptide. If it is also designated G or M it can also be used for antimicrobial activity.

microorganisms [2] = assay: Morphology, biofilm and growth disruption by peptides (Table 5); type: cell-based; design: key: A: Peptide aggregates; B: Less hyphal formation; Clumps; Diffuse clumps and small polyps; F: Diffuse growth; H: Thin; I: Growth inhibition; Microcolony formation; Rippled; Small polyps; Thick; W: Halo formation on top, microlonies on bottom
Excerpt: In certain embodiments peptides that induce alterations in phenotype or other biological activities can also be used as antimicrobial effector moieties.

PF-464 (VDMVNRFLGN; Peptide with targeting and/or antimicrobial activity)
Target(s) (microorganisms bound by the targeting peptide) (bacteria): S. epidermidis and C. albicans and MRSA and S. pneumoniae and E. faecalis and C. jeikeium and C. jejuni
Activities (microorganisms [1]): G B
Organism, effect (morphology, biofilm and growth disruption) (microorganisms [2]; S. pneumoniae): S. pneumoniae (S)

PF-C072 (KKMFSLIRKVNWIFFILFIVLDLTNVFPLIRTILFAILSRQ; Peptide with targeting and/or antimicrobial activity)
Target(s) (microorganism bound by the targeting peptide) (bacteria): A. naeslundii; also recorded: F. nucleatum; also recorded: P. gingivalis; also recorded: S. mutans; also recorded: T. denticola
Activities (microorganisms [1]): G B
Organism, effect (morphology, biofilm and growth disruption) (microorganisms [2]; F. nucleatum): F. nucleatum (T)
Organism, effect (morphology, biofilm and growth disruption) (microorganisms [2]; P. gingivalis): P. gingivalis (T)
Organism, effect (morphology, biofilm and growth disruption) (microorganisms [2]; S. mutans): S. mutans (F)

PF-031 (MPHHSTTSSRIVVPAHQSNMASTPNLSITP; Peptide with targeting and/or antimicrobial activity)
Target(s) (bacteria): M. luteus; also recorded: C. albicans
Activities (microorganisms [1]): G B
Organism, effect (microorganisms [2]; MRSA): MRSA (M)

PF-622 (chain 1 TREDVFSVRLINNIVNKQA; chain 2 TREDVFSVRLINNIVNKQA; Peptide with targeting and/or antimicrobial activity)
Target(s) (microorganism bound by the targeting peptide) (bacteria): S. epidermidis; also recorded: P. aeruginosa; also recorded: C. albicans; also recorded: S. pneumoniae; also recorded: E. faecalis; also recorded: C. jeikeium
Activities (microorganisms [1]): G B
Organism, effect (morphology, biofilm and growth disruption) (microorganisms [2]; C. jeikeium): C. jeikeium (D)
Organism, effect (morphology, biofilm and growth disruption) (microorganisms [2]; E. faecalis): E. faecalis (D)
Organism, effect (morphology, biofilm and growth disruption) (microorganisms [2]; MRSA): MRSA (D)
Organism, effect (morphology, biofilm and growth disruption) (microorganisms [2]; S. epidermidis): S. epidermidis (D)
Organism, effect (morphology, biofilm and growth disruption) (microorganisms [2]; S. pneumoniae): S. pneumoniae (M)

PF-546 (PIIAPTIKTQIQ; Peptide with targeting and/or antimicrobial activity)
Target(s) (microorganisms bound by the targeting peptide) (bacteria): S. epidermidis; also recorded: E. coli; also recorded: C. albicans; also recorded: S. pneumoniae; also recorded: E. faecalis; also recorded: C. jeikeium
Activities (microorganisms [1]): G B
Organism, effect (morphology, biofilm and growth disruption) (microorganisms [2]; C. jeikeium): C. jeikeium (D)
Organism, effect (morphology, biofilm and growth disruption) (microorganisms [2]; E. coli): E. coli (R)
Organism, effect (morphology, biofilm and growth disruption) (microorganisms [2]; E. faecalis): E. faecalis (D)
Organism, effect (morphology, biofilm and growth disruption) (microorganisms [2]; MRSA): MRSA (D)
Organism, effect (morphology, biofilm and growth disruption) (microorganisms [2]; S. epidermidis): S. epidermidis (D)
Organism, effect (morphology, biofilm and growth disruption) (microorganisms [2]; S. pneumoniae): S. pneumoniae (D)

PF-557 (AANKAREQAAAEAKRKAEEQAR; Peptide with targeting and/or antimicrobial activity)
Target(s) (microorganisms bound by the targeting peptide) (bacteria): S. pneumoniae
Activities (microorganisms [1]): G B
Organism, effect (morphology, biofilm and growth disruption) (microorganisms [2]; B. subtilis): B. subtilis (D)

PF-C061 (TLNYKKMFFSVIFLLGLNYLICNSPLFFKQIEF; Peptide with targeting and/or antimicrobial activity)
Target(s) (microorganism bound by the targeting peptide) (bacteria): A. naeslundii; also recorded: F. nucleatum; also recorded: P. gingivalis; also recorded: S. mutans; also recorded: T. denticola
Activities (microorganisms [1]): G B
Organism, effect (morphology, biofilm and growth disruption) (microorganisms [2]; F. nucleatum): F. nucleatum (T)
Organism, effect (morphology, biofilm and growth disruption) (microorganisms [2]; S. mutans): S. mutans (F)

PF-635 (chain 1 MNAHGHSLIFQKMIVHAFAFFSKQKNYLYF; chain 2 MNAHGHSLIFQKMIVHAFAFFSKQKNYLYF; Peptide with targeting and/or antimicrobial activity)
Target(s) (microorganism bound by the targeting peptide) (bacteria): S. epidermidis and P. aeruginosa and C. albicans and MRSA and S. pneumoniae and E. faecalis and C. jeikeium
Activities (microorganisms [1]): G B
Organism, effect (morphology, biofilm and growth disruption) (microorganisms [2]; C. albicans): C. albicans (B)
Organism, effect (morphology, biofilm and growth disruption) (microorganisms [2]; C. jeikeium): C. jeikeium (D)
Organism, effect (morphology, biofilm and growth disruption) (microorganisms [2]; E. faecalis): E. faecalis (D)
Organism, effect (morphology, biofilm and growth disruption) (microorganisms [2]; MRSA): MRSA (D)
Organism, effect (morphology, biofilm and growth disruption) (microorganisms [2]; S. epidermidis): S. epidermidis (M)
Organism, effect (morphology, biofilm and growth disruption) (microorganisms [2]; S. pneumoniae): S. pneumoniae (D)

PF-046 (LDFYLTKHLTLML; Peptide with targeting and/or antimicrobial activity)
Target(s) (bacteria): E. coli; also recorded: E. faecalis; also recorded: C. jeikeium
Activities (microorganisms [1]): G B
Organism, effect (microorganisms [2]; C. jeikeium): C. jeikeium (R)
Organism, effect (microorganisms [2]; MRSA): MRSA (R)
Organism, effect (microorganisms [2]; S. epidermidis): S. epidermidis (C)

PF-444 (MAAKLWEEGKMVYASSASMTKRLKLAMSKV; Peptide with targeting and/or antimicrobial activity)
Target(s) (microorganisms bound by the targeting peptide) (bacteria): M. luteus; also recorded: C. albicans; also recorded: S. pneumoniae; also recorded: C. jeikeium
Activities (microorganisms [1]): G B
Organism, effect (morphology, biofilm and growth disruption) (microorganisms [2]; E. coli): E. coli (R)
Organism, effect (morphology, biofilm and growth disruption) (microorganisms [2]; E. faecalis): E. faecalis (C)
Organism, effect (morphology, biofilm and growth disruption) (microorganisms [2]; MRSA): MRSA (C)
Organism, effect (morphology, biofilm and growth disruption) (microorganisms [2]; S. epidermidis): S. epidermidis (C)
Organism, effect (morphology, biofilm and growth disruption) (microorganisms [2]; S. pneumoniae): S. pneumoniae (R)

PF-458 (ISLIIFIMLFVVALFKCITNYKHQS; Peptide with targeting and/or antimicrobial activity)
Activities (microorganisms [1]): G B
Organism, effect (morphology, biofilm and growth disruption) (microorganisms [2]; MRSA): MRSA (M)
Organism, effect (morphology, biofilm and growth disruption) (microorganisms [2]; P. aeruginosa): P. aeruginosa (H)
Organism, effect (morphology, biofilm and growth disruption) (microorganisms [2]; S. pneumoniae): S. pneumoniae (M)

PF-056 (AEQLFGKQKQRGVDLFLNRLTIILSILFFVLMICISYLGM; Peptide with targeting and/or antimicrobial activity)
Activities (microorganisms [1]): G B
Organism, effect (microorganisms [2]; B. subtilis): B. subtilis (C)
Organism, effect (microorganisms [2]; C. albicans): C. albicans (B)
Organism, effect (microorganisms [2]; C. jeikeium): C. jeikeium (S)
Organism, effect (microorganisms [2]; C. jejuni): C. jejuni (D)
Organism, effect (microorganisms [2]; M. luteus): M. luteus (D)
Organism, effect (microorganisms [2]; MRSA): MRSA (M)
Organism, effect (microorganisms [2]; S. epidermidis): S. epidermidis (D)
Organism, effect (microorganisms [2]; S. pneumoniae): S. pneumoniae (D)

PF-124 (MADGQIAAIAKLHGVPVATRNIRHFQSFGVELINPWSG; Peptide with targeting and/or antimicrobial activity)
Activities (microorganisms [1]): G B
Organism, effect (microorganisms [2]; C. jeikeium): C. jeikeium (R)
Organism, effect (microorganisms [2]; S. epidermidis): S. epidermidis (C)

PF-063 (IAAIIVLVLFQKGLLQIFNWILIQLQ; Peptide with targeting and/or antimicrobial activity)
Activities (microorganisms [1]): G B
Organism, effect (microorganisms [2]; B. subtilis): B. subtilis (C)
Organism, effect (microorganisms [2]; C. jeikeium): C. jeikeium (D)
Organism, effect (microorganisms [2]; C. jejuni): C. jejuni (D)
Organism, effect (microorganisms [2]; M. luteus): M. luteus (R)
Organism, effect (microorganisms [2]; MRSA): MRSA (M)
Organism, effect (microorganisms [2]; P. aeruginosa): P. aeruginosa (A)
Organism, effect (microorganisms [2]; S. epidermidis): S. epidermidis (R)
Organism, effect (microorganisms [2]; S. pneumoniae): S. pneumoniae (D)

AL C SVIKAIEL GIINVHL Q [PF-366]
Activities (microorganisms [1]): G B
Organism, effect (microorganisms [2]; C. jejuni): C. jejuni (D)
Organism, effect (microorganisms [2]; E. coli): E. coli (C)
Organism, effect (microorganisms [2]; E. faecalis): E. faecalis (C)
Organism, effect (microorganisms [2]; MRSA): MRSA (D)
Organism, effect (microorganisms [2]; P. aeruginosa): P. aeruginosa (A)
Organism, effect (microorganisms [2]; S. epidermidis): S. epidermidis (R)
Organism, effect (microorganisms [2]; S. pneumoniae): S. pneumoniae (C)

PF-439 (RVLVLKKFHGIMDGNRNVAVFFVGQ; Peptide with targeting and/or antimicrobial activity)
Activities (microorganisms [1]): G B
Organism, effect (morphology, biofilm and growth disruption) (microorganisms [2]; E. coli): E. coli (R)
Organism, effect (morphology, biofilm and growth disruption) (microorganisms [2]; E. faecalis): E. faecalis (C)
Organism, effect (morphology, biofilm and growth disruption) (microorganisms [2]; MRSA): MRSA (M)
Organism, effect (morphology, biofilm and growth disruption) (microorganisms [2]; S. epidermidis): S. epidermidis (C)
Organism, effect (morphology, biofilm and growth disruption) (microorganisms [2]; S. pneumoniae): S. pneumoniae (R)

PF-603 (IDKLKKMNLQKLSYEVRISQDGKSIYARIK; Peptide with targeting and/or antimicrobial activity)
Activities (microorganisms [1]): G B
Organism, effect (morphology, biofilm and growth disruption) (microorganisms [2]; E. coli): E. coli (M)
Organism, effect (morphology, biofilm and growth disruption) (microorganisms [2]; M. luteus): M. luteus (A)
Organism, effect (morphology, biofilm and growth disruption) (microorganisms [2]; MRSA): MRSA (M)
Organism, effect (morphology, biofilm and growth disruption) (microorganisms [2]; S. epidermidis): S. epidermidis (D)
Organism, effect (morphology, biofilm and growth disruption) (microorganisms [2]; S. pneumoniae): S. pneumoniae (C)

PF-443 (KLLYFFNYFENLQQVHLLVQL; Peptide with targeting and/or antimicrobial activity)
Activities (microorganisms [1]): G B
Organism, effect (morphology, biofilm and growth disruption) (microorganisms [2]; E. coli): E. coli (R)
Organism, effect (morphology, biofilm and growth disruption) (microorganisms [2]; MRSA): MRSA (C)
Organism, effect (morphology, biofilm and growth disruption) (microorganisms [2]; S. pneumoniae): S. pneumoniae (C)

PF-022 (MINELKNKNSGIMNNYVVTKESKL; Peptide with targeting and/or antimicrobial activity)
Activities (microorganisms [1]): G B
Organism, effect (microorganisms [2]; C. jeikeium): C. jeikeium (A)
Organism, effect (microorganisms [2]; M. luteus): M. luteus (A)
Organism, effect (microorganisms [2]; MRSA): MRSA (R)
Organism, effect (microorganisms [2]; S. epidermidis): S. epidermidis (D)

PF-042 (LLLSYFRYTGALLQSLF; Peptide with targeting and/or antimicrobial activity)
Activities (microorganisms [1]): G B
Organism, effect (microorganisms [2]; C. jeikeium): C. jeikeium (S)
Organism, effect (microorganisms [2]; M. luteus): M. luteus (C)
Organism, effect (microorganisms [2]; MRSA): MRSA (R)
Organism, effect (microorganisms [2]; S. epidermidis): S. epidermidis (D)

B1: PF-748 (peptide)
chain 1: FQGFFDVAVNKWWEEHNKAKLWKNVKGKFLEGEGEEEDDE
chain 2: B1 chain 1
modifications: Peptide with targeting and/or antimicrobial activity
Activities (microorganisms [1]): G B
Organism, effect (morphology, biofilm and growth disruption) (microorganisms [2]; S. pneumoniae): S. pneumoniae (H)
